Values joined by “and” are separate entries in the source; they are usually repeats but may differ in a detail not shown here. Equal values may be shown once.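 48-hour exposure; five concentrations; linearly interpolated endpoints. GI50 = concentration required for 50% inhibition of growth. Definition used: TGI = concentration required for complete inhibition of growth.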
System: MDA-MB-468 breast
Assay: NCI anticancer screen, dose series, 48 h

Row | SMILES | GI50 | TGI
1 | CN1CCN(CCCOc2ccc3nc(Nc4cc(Cl)cc(Cl)c4)ccc3c2)CC1 | 1.6 µM | 3.25 µM
2 | CCn1cc(C(=O)O)c(=O)c2cc(F)c(N3CCN(S(=O)(=O)c4ccc(Cl)cc4)CC3)cc21 | 2.1 µM | 6.24 µM
3 | C[C@@H]1C[N+]2([O-])[C@H]3C4=CCC[C@@H]4CC[C@H]3[C@@]3(C)OC(=O)CC[C@]34CC[C@H]1[C@@H]42 (some centres not stated) | > 60 µM | > 60 µM
4 | Nc1cc(-c2c[nH]c3ccc(Br)cc23)nc2cc(-c3c[nH]c4ccc(Br)cc34)nn12 | 1.59 µM | 3.16 µM
5 | COc1cc2ncn(-c3cc(O[C@H](C)c4ccccc4Cl)c(C(N)=O)s3)c2cc1OC | 0.00789 µM | 4 µM
6 | O=C(Nc1cccc(Cl)c1)Nc1nc2ccc([N+](=O)[O-])cc2s1 | 1.04 µM | 3.25 µM
7 | CN(C)CCCOc1ccc(OCCCN(C)C)c2c1C(=O)c1ccccc1C2=O | 0.58 µM | 2.95 µM
8 | CCOC(=O)N1C/C(=C/c2ccc(F)cc2)C(=O)/C(=C/c2ccc(F)cc2)C1 | 1.26 µM | 2.9 µM
9 | CC(=O)O[C@H]1CCC2(C)C(=CCC3C2CCC2(C)/C(=N/OC(=O)c4ccc(N(CCCl)CCCl)cc4)CCC32)C1 (some centres not stated) | 31.1 µM | > 100 µM
10 | O=C(N/N=C\c1ccc(Cl)cc1)c1ccc2nc(-c3ccc(Br)cc3)[nH]c2c1 | 2.02 µM | 3.86 µM
11 | O=c1c2cc(F)ccc2sc2c(N3CCNCC3)nc3ccccc3c12 | 1.58 µM | 3.19 µM
12 | O=NN(CCCl)C(=O)NCCCl |  | 146 µM and > 500 µM
13 | O=c1c2ccc3cccc4c(=O)c5ccc6cccc1c6c5-c2c34 | > 50 µM | > 50 µM
14 | COc1ccc2[nH]c(-c3ccccc3)c(/C=C(\C#N)S(=O)(=O)c3ccccc3)c2c1 | 4.17 µM | > 100 µM
15 | Fc1cnc(NC2CC2)nc1-c1cnc2ccc(N3CCOCC3)cn12 | 0.182 µM | 0.429 µM
16 | CCOc1ccccc1NC1=C(Cl)C(=O)c2nc(C)ccc2C1=O | 1.45 µM | 2.88 µM
17 | O=C(Nc1ccc(CN2CCOCC2)cc1)c1ccc(-c2cc(Cl)ccc2Cl)o1 | 4.52 µM | 25.8 µM
18 | CCN1CCN(c2cc(C)nc(N(CCNc3ccnc4cc(Cl)ccc34)Cc3ccc4c(c3)OCO4)n2)CC1 | 0.534 µM | 2.14 µM
19 | O=C1c2ccccc2-c2nnc(-c3ccc(Br)cc3)cc21 | > 100 µM | > 100 µM
20 | O=C(Nc1cccc(-n2cc(-c3ccncc3)c(-c3ccc(Cl)c(O)c3)n2)c1)Nc1ccc(Cl)c(C(F)(F)F)c1 | 0.547 µM | 2.23 µM
21 | CCc1ccc(CNCC(O)c2ccccc2)cc1 (configuration not stated) | 13.2 µM | 28.2 µM
22 | CCOc1nc(-c2ccccc2)cc2c(O)c(C(=O)N/N=C/c3ccc(O)cc3O)[nH]c(=O)c12 | 2.49 µM | 56.7 µM
23 | CCCCN1CCN(c2ccc3nc(-c4ccc5nc(-c6ccc(OC)c(OC)c6)[nH]c5c4)[nH]c3c2)CC1 | 0.37 µM | 1.33 µM
24 | CC(=O)Nc1cccc(Nc2nc(N[C@@H](C)c3ccccc3)c3ccccc3n2)c1 | 0.229 µM | 0.818 µM
